This is an account of results in patent publication US20240173317A1, “METHODS FOR TREATING PROGRESSIVE FAMILIAL INTRAHEPATIC CHOLESTASIS” (MIRUM PHARMACEUTICALS, INC., priority 2022, published 2024).

Read-outs that look alike come from different tables or passages of the source.

One series concerns patients with PFIC. In words: Bilirubin, MARCH-ON long-term extension. Format: in vivo, human. The settings on record: MRX-MRX group; Baseline through Week 52. The source says:
(§1) Eighty-five patients from MARCH trial enrolled in MARCH-ON (Table 10, FIG. 29A). Forty-seven patients had received Maralixibat (MRX-MRX) and 38 had received placebo (PBO-MRX) during MARCH trial.
(§2) PFIC subtypes of patients included in the study were: non-truncated bile salt export pump (nt-B SEP, n=27), familial intrahepatic cholestasis-associated protein type 1 (F1C1, n=13); multidrug-resistance 3 protein (MDR3, n=9); tight junction protein 2 (TJP2, n=6); myosin VB (MYO5B, n=2); heterozygosis (n=2); truncated B SEP (t-B SEP, n=9); variant not found (n=8), fluctuating sBA (n=2); and surgery (n=7). Efficacy analyses included n=33 in the MRX-MRX group and n=24 in the PRO-MRX group. Subtypes nt-BSEP, F1C1, MDR3, TJP2, and MYO5B were included in the efficacy analyses. Baseline was defined as the start of maralixibat (MRX) treatment for each group.
Methods: Long-term maintenance of response was assessed for patients who were originally randomized to receive MRX in MARCH and continued with treatment in MARCH-ON (MRX-MRX group; n=33). MRX response was assessed for patients who received PBO in the MARCH study and switched to open-label MRX in MARCH-ON (PBO-MRX group; n=24). Assessments included: pruritus measured by 0-4 scale of ItchRO[Obs], sBA, bilirubin, and growth z-scores, as well as incidence of treatment-emergent adverse events(TEAEs). […]

For series [1], the system named is participants with PFIC 1 or PFIC 2. The settings on record: cited from earlier work.
The subject of series [2] is subjects with PFIC. In words: Clinician Scratch Scale (CSS) score, MARCH-PFIC Phase 3 study. Format: in vivo, human. From the text:
Clinician Scratch Scale (CSS). The CSS provides an assessment of itch severity. The clinician's assessment of the subject's pruritus focused on scratching and visible damage to the skin as a result of scratching as observed by the physician. The CSS uses a 5-point scale, in which 0 designates no evidence of scratching and 4 designates cutaneous mutilation with bleeding, hemorrhage and scarring. A clinician's assessment of pruritus made by the principal investigator or sub-investigator using the CSS was recorded at screening, baseline, and at additional study visits as outline in Table 2.
For the PFIC Cohort, PFIC Type is included in the model as an additional covariate.
Clinician Scratch Scale (CSS) was scored on a 0-4 scale, where 0=none and 4=cutaneous mutilations, haemorrage, and scarring (worst scratching).

For series [3], the system named is subjects with PFIC. In words: Clinical laboratory evaluations (ALT/transaminases, INR, vitamins A, D, E), MARCH-PFIC Phase 3 study. Format: in vivo, human. From the text:
Clinical Laboratory Evaluations.
For subjects with a confirmed increase in ALT or TSB level, meeting the close monitoring criteria, the following investigations were considered, as clinically indicated: 1) Close and frequent monitoring of liver enzyme and serum bilirubin tests as clinically indicated; 2) Symptoms as well as prior, current, and intercurrent diseases/illnesses; 3) Use of or recent change in use of concomitant treatment (including non-prescription medications, herbal and dietary supplement preparations), alcohol use, recreational drug use, and special diets; 4) History for exposure to environmental chemical agents and travel; 5) Serology for viral hepatitis (HAV IgM, HBsAg, HCV antibody, HCVRNA, CMV IgM, and EBV antibody panel); 6) Serology for autoimmune hepatitis (e.g., antinuclear antibody [ANA]); 7) AST, creatine phosphokinase (CPK), and lactate dehydrogenase (LDH); 8) CBC with differential blood count (eosinophils); 9) Reticulocyte count, PT/INR.

Series [4] deals with participants with ALGS. In words: sBA in participants with ALGS aged 16 years and older. Format: in vivo, human. How it is done: (§3) All patients received the daily dose appropriate for their weight, with an adult maximum dose of 28.5 mg/d. ^bBefore age 16 years is defined as the last data point prior to turning 16 years of age. After age 16 years is defined as the first data point after turning 16 years of age.
(§4) FIGS. 31A and 31B show a change in ltchRO(Obs) (FIG. 31A) and sBA (FIG. 31B) for participants who initiated MRX treatment at <16 years of age (n=11). Of 11 participants, 9 had ItchRO(Obs) scores available for all time points and were included in the analysis. ^bItchRO(Obs) is a 0-4 scale with >1-point reduction considered clinically meaningful. Mean ItchRO(Obs) was rounded to 1 decimal place. Error bars represent SE. Significance was determined using student t test. ^cMean sBA was rounded to the nearest whole number. Error bars represent SE. ^dAverage of last 2 records prior to age 16 years. ^eAverage of first 2 records after age 16 years. ^fAverage of final 2 records.
(§5) FIGS. 32A and 32B show a change in ltchRO(Obs) (FIG. 32A) and sBA (FIG. 32B) for participants who Initiated MRX treatment at ≥16 years of age (n=3). ^aItchRO(Obs) is 0-4 scale with ≥1-point reduction considered clinically meaningful. ^bAverage of final two records.
(§6) The efficacy and safety of MRX in participants with ALGS aged ≥16 years transitioning to adult care and participant aged ≥16 years who initiate MRX treatment were studied (FIG. 30). […]

Series [5] in a line: Growth z-scores (height, weight), MARCH-ON long-term extension. Format: in vivo, human.
Description: as §1, §2
Methods: Long-term maintenance of response was assessed for patients who were originally randomized to receive MRX in MARCH and continued with treatment in MARCH-ON (MRX-MRX group; n=33). MRX response was assessed for patients who received PBO in the MARCH study and switched to open-label MRX in MARCH-ON (PBO-MRX group; n=24). Assessments included: pruritus measured by 0-4 scale of ItchRO[Obs], sBA, bilirubin, and growth z-scores, as well as incidence of treatment-emergent adverse events(TEAEs). Baseline (BL) was defined as the start of MRX for each group.

The test system of series [6] is participants with ALGS. In words: ItchRO(Obs) pruritus in participants with ALGS aged 16 years and older. Format: in vivo, human. How it is done:
as §3, §4, §5, §6

The mark [7] stands for this setting: BSEP deficiency cohort, FIG. 19A.
Setting [8] is: MRX-MRX group (n = 20), Baseline to Week 52.
The mark [9] stands for this setting: PBO-MRX group (n = 15), Baseline to Week 26.

Turning to `CCCCC1(CCCC)CS(=O)(=O)c2ccc(N(C)C)cc2[C@@H](c2ccc(OCc3ccc(C[N+]45CCN(CC4)CC5)cc3)cc2)[C@H]1O` [maralixibat, 1-(4-((4-((4R,5R)-3,3-dibutyl-7-(dimethylamino)-4-hydroxy-1,1-dioxido-2,3,4,5-tetrahydrobenzo[b]thiepin-5-yl)phenoxy)methyl)benzyl)-1,4-diazabicyclo[2.2.2]octan-1-ium], in the series with patients with PFIC, the “bilirubin, change from Baseline” value is -2.64 mg/dL. In addition, the “response in Indigo Phase 2 study” value in series [1] (participants with PFIC 2) was “had a response”; in series [1] (patients with PFIC 1) it was “did not have a response”. Besides, the “difference in CSS improvement vs placebo group” value in the series with subjects with PFIC [2] (setting [7]) came out at 1.328 point; in the series on subjects with PFIC [2] (PFIC cohort, FIG. 19B), 1.247 point. Further, the “improvement in CSS score relative to baseline” value was “about 1.7 points” in the series with subjects with PFIC [2] (setting [7]) and “about 1.8 points” with subjects with PFIC [2] (PFIC cohort, FIG. 19B). Besides, the “changes in serum ALT” value in the series on subjects with PFIC [3] (All-PFIC Cohort, FIG. 26A-B) is given as “No significant changes”. Moreover, the “changes from baseline in transaminase levels” value in the series on subjects with PFIC [3] (MARCH, either group) was “no clinically meaningful changes”. For the same compound, the “changes from baseline in serum levels of vitamins A, D, and E” value in the series on subjects with PFIC [3] (MARCH, under regular FSV supplementation) is given as “No clinically meaningful changes”. In addition, the “International normalized ratio (INR), mean change from Baseline” value with subjects with PFIC [3] (MARCH, week 26) is −0.3. The “improvements in sBA” value in the series with participants with ALGS [4] (MRX during childhood, maintained into early adulthood, FIG. 31B) is reported as “significant improvements”; with participants with ALGS [4] (participants receiving MRX in early adulthood, FIG. 32B) it was “significant improvements”. Besides, the entries for the “Height Z-score, mean change from Baseline” value in series [5] (setting [8]) and in series [5] (setting [9]) were “+0.54” and “+0.46”, respectively. Further, the entries for the “Weight Z-score, mean change from Baseline” value in series [5] (setting [8]) and in series [5] (setting [9]) were “+0.44” and “+0.09”, respectively. Besides, the “improvements in pruritus (ItchRO(Obs))” value is “significant improvements” in the series with participants with ALGS [6] (MRX during childhood, maintained into early adulthood, FIG. 31A) and “significant improvements” with participants with ALGS [6] (participants receiving MRX in early adulthood, FIG. 32A).
